Measured values: patent US10039282B2, “Six-membered C—N-bonded aryl sulphide and aryl sulphoxide derivatives as pesticides” (BAYER CROPSCIENCE AKTIENGESELLSCHAFT, priority 2013, dated 2018)
Read-outs that look alike come from different tables or passages of the source.

How the values were obtained:
[1] = log P by reversed-phase HPLC analogously to OECD Guideline 117; type: physicochemical; conditions: for logP (HCOOH): pH 2.7; for logP (neutral): pH 7.8
Protocol: The log P values were determined analogously to OECD Guideline 117 (EC Directive 92/69/EEC) by HPLC (high-performance liquid chromatography) using reversed-phase columns (C 18), by the following methods:
[a] The LC-MS determination in the acidic range is effected at pH 2.7 with 0.1% aqueous formic acid and acetonitrile (contains 0.1% formic acid) as eluents; linear gradient from 10% acetonitrile to 95% acetonitrile. log P^[…] is also referred to as log P(HCOOH). [b] LC-MS determination in the neutral range is effected at pH 7.8 with 0.001 molar aqueous ammonium hydrogencarbonate solution and acetonitrile as eluents; linear gradient from 10% acetonitrile to 95% acetonitrile. log P^[…] is also referred to as log P(neutral).
Calibration is effected with solutions of a homologous series of unbranched alkan-2-ones (having 3 to 16 carbon atoms) with known log P values (log P values determined on the basis of the retention times by linear interpolation between two successive alkanones).

[2] = test system: Tetranychus urticae; experiment: Tetranychus urticae spray test, OP-resistant (bean leaf discs); type: in vivo; conditions: 500 g/ha, after 6 days
Protocol: 4. Tetranychus urticae—Spray Test, OP-Resistant
Solvent: 78.0 parts by weight of acetone
• 1.5 parts by weight of dimethylformamide Emulsifier: alkylaryl polyglycol ether
To produce further test concentrations, the preparation is diluted with emulsifier-containing water.
After 6 days, the efficacy in % is determined. 100% means that all the spider mites have been killed; 0% means that none of the spider mites have been killed.

[3] = test system: Boophilus microplus; experiment: Boophilus microplus injection test; type: in vivo; conditions: 20 μg/animal, assessed after 7 days
Protocol: 1. Boophilus microplus—Injection Test
Solvent: dimethyl sulphoxide
To produce an appropriate active compound formulation, 10 mg of active compound are mixed with 0.5 ml of solvent and the concentrate is diluted with solvent to the desired concentration.
1 μl of the active compound solution is injected into the abdomen of 5 engorged adult female cattle ticks (Boophilus microplus). The animals are transferred into dishes and kept in a climate-controlled room.
The efficacy is assessed after 7 days by laying of fertile eggs. Eggs which are not visibly fertile are stored in a climate-controlled cabinet until the larvae hatch after about 42 days. An efficacy of 100% means that none of the ticks has laid any fertile eggs; 0% means that all the eggs are fertile.

[4] = reversed-phase C18 HPLC column, acidic range, pH 2.7, 0.1% aqueous formic acid/acetonitrile, read-out: logP (HCOOH)
[5] = reversed-phase C18 HPLC column, neutral range, pH 7.8, 0.001 molar aqueous ammonium hydrogencarbonate/acetonitrile, read-out: logP (neutral)
[6] = acidic range, pH 2.7, 0.1% aqueous formic acid/acetonitrile, read-out: logP (HCOOH)

Row | logP (HCOOH) [1] | Structure (SMILES) | efficacy (spider mites killed) [2] [%] | also measured
1 | 2.53 | Cc1cc(C)c(SCC(F)(F)F)cc1NC(=O)C=C(O)C(F)F [XXXI-10] | – | –
2 | – | O=c1cc(C(F)(F)F)ncn1-c1ccc(Cl)c(SCC(F)(F)F)c1 [Example 54] | 100 | –
3 | – | Cc1cc(F)c(NC(=O)/C=C(\N)C(F)(F)F)cc1SCC(F)(F)F [IIa-1, 3-Amino-4,4,4-trifluoro-N-{2-fluoro-4-methyl-5-[(2,2,2-trifluoroethyl)sulphanyl]phenyl}but-2-enamide] | – | chromatographic logP [1, 4]: 3.61; chromatographic logP [1, 5]: 3.6
4 | 3.58 | Cc1ccc(NC(=O)C=C(N)C(F)(F)F)cc1SCC(F)(F)F [IIa-6] | – | logP (neutral) [1]: 3.49
5 | – | Cc1cc(C)c(SCC(F)(F)F)cc1NC(=O)/C=C(\O)C(F)(F)F [XXXI-2, N-[2,4-Dimethyl-5-(2,2,2-trifluoroethylsulphanyl)phenyl]-4,4,4-trifluoro-3-hydroxybut-2-enamide] | – | chromatographic logP [1, 6]: 2.87
6 | 4.05 | Cc1cc(Cl)c(NC(=O)C=C(N)C(F)(F)F)cc1SCC(F)(F)F [IIa-8] | – | logP (neutral) [1]: 3.99
7 | – | Cc1cc(Cl)c(-n2cnc(C(F)(F)F)cc2=O)cc1SCC(F)(F)F [Example 59] | 100 | efficacy (no fertile eggs laid) [3]: 100%
8 | – | Cc1cc(F)c(-n2cnc(C(C)(F)F)cc2=O)cc1SCC(F)(F)F [Example 22] | 100 | efficacy (no fertile eggs laid) [3]: 100%
9 | – | CCc1cc(=O)n(-c2ccc(C)c([S+]([O-])CC(F)(F)F)c2)cn1 (racemic) [Example 17] | 100 | –
10 | – | Cc1cc(C)c(SCC(F)(F)F)cc1NC(=O)/C=C(\N)C(F)(F)F [IIa-2, 3-Amino-N-[2,4-dimethyl-5-(2,2,2-trifluoroethylsulphanyl)phenyl]-4,4,4-trilluorobut-2-enamide] | – | chromatographic logP [1, 4]: 3.63; chromatographic logP [1, 5]: 3.61
11 | – | CCc1cc(=O)n(-c2cc(SCC(F)(F)F)c(C)cc2C)cn1 [Example 39] | 100 | –
12 | – | O=c1cc(C(F)(F)F)ncn1-c1cc([S+]([O-])CC(F)(F)F)c(Cl)cc1Cl (racemic) [Example 4] | 100 | efficacy (no fertile eggs laid) [3]: 100%
13 | – | CCc1cc(=O)n(-c2cc([S+]([O-])CC(F)(F)F)c(C)cc2C)cn1 (racemic) [Example 24] | 90 | –
14 | – | Cc1cc(C)c([S+]([O-])CC(F)(F)F)cc1-n1c(C)nc(C(F)(F)F)cc1=O (racemic) [Example 14] | 100 | –
15 | – | Cc1cc(F)c(-n2c(C)nc(C(F)(F)F)cc2=O)cc1SCC(F)(F)F [Example 8] | 100 | –
16 | – | Cc1cc(C)c(-n2cnc(C)c(C)c2=O)cc1SCC(F)(F)F [Example 13] | 100 | –
17 | – | Cc1cc(F)c(-n2c(C)nc(C(F)(F)F)cc2=O)cc1[S+]([O-])CC(F)(F)F (racemic) [Example 19] | 100 | –
18 | – | Cc1cc(F)c(-n2cnc(C(C)C)cc2=O)cc1[S+]([O-])CC(F)(F)F (racemic) [Example 52] | 100 | –
19 | 4.24 | NC(=CC(=O)Nc1cc(SCC(F)(F)F)c(Cl)cc1Cl)C(F)(F)F [IIa-3] | – | logP (neutral) [1]: 4.13

Row | logP (HCOOH) [1] | Structure (SMILES) | efficacy (spider mites killed) [2] [%] | also measured
20 | 3.24 | Cc1cc(C)c(SCC(F)(F)F)cc1NC(=O)C=C(N)C(F)F [IIa-10] | – | logP (neutral) [1]: 3.15
21 | – | Cc1cc(C)c(-n2cnc(C(C)(F)F)cc2=O)cc1SCC(F)(F)F [Example 51] | 100 | –
22 | 3.52 | Cc1cc(C)c(SCC(F)(F)F)cc1NC(=O)C=C(N)C(C)(F)F [IIa-12] | – | logP (neutral) [1]: 3.40
23 | 2.47 | Cc1cc(F)c(NC(=O)C=C(O)C(F)F)cc1SCC(F)(F)F [XXXI-9] | – | –
24 | – | Cc1cc(C)c([S+]([O-])CC(F)(F)F)cc1-n1cnc(C2CC2)cc1=O (racemic) [Example 35] | 90 | –
25 | – | CCc1cc(=O)n(-c2cc(SCC(F)(F)F)c(C)cc2F)cn1 [Example 57] | 100 | –
26 | 2.86 | O=C(C=C(O)C(F)(F)F)Nc1cc(SCC(F)(F)F)c(Cl)cc1F [XXXI-4] | – | logP (neutral) [1]: 1.45
27 | – | Cc1ccc(-n2cnccc2=O)cc1[S+]([O-])CC(F)(F)F (racemic) [Example 28] | 90 | –
28 | 2.84 | O=C(C=C(O)C(F)(F)F)Nc1ccc(Cl)c(SCC(F)(F)F)c1 [XXXI-7] | – | –
29 | 3.23 | Cc1cc(F)c(NC(=O)C=C(N)C(F)F)cc1SCC(F)(F)F [IIa-9] | – | logP (neutral) [1]: 3.21
30 | – | O=c1cc(C(F)(F)F)ncn1-c1cc(SCC(F)(F)F)c(Cl)cc1F [Example 16] | 100 | –
31 | – | Cc1ccc(-n2cnc(C(F)(F)F)cc2=O)cc1SCC(F)(F)F [Example 47] | 100 | efficacy (no fertile eggs laid) [3]: 100%
32 | 3.13 | O=C(C=C(O)C(F)(F)F)Nc1cc(SCC(F)(F)F)c(Cl)cc1Cl [XXXI-3] | – | –
33 | – | Cc1cc(C)c(-n2cnc(C3CC3)cc2=O)cc1SCC(F)(F)F [Example 23] | 100 | –
34 | 2.93 | O=C(C=C(O)C(F)(F)F)Nc1cc(SCC(F)(F)F)c(Br)cc1F [XXXI-5] | – | –
35 | – | Cc1cc(F)c(-n2cnc(C(F)F)cc2=O)cc1SCC(F)(F)F [Example 32] | 100 | –
36 | 2.80 | Cc1ccc(NC(=O)C=C(O)C(F)(F)F)cc1SCC(F)(F)F [XXXI-6] | – | –
37 | – | O=c1cc(C(F)(F)F)ncn1-c1cc([S+]([O-])CC(F)(F)F)c(Cl)cc1F (racemic) [Example 29] | 100 | –
38 | – | CCc1cc(=O)n(-c2cc([S+]([O-])CC(F)(F)F)c(C)cc2F)cn1 (racemic) [Example 10] | 100 | –

Row | logP (HCOOH) [1] | Structure (SMILES) | efficacy (spider mites killed) [2] [%] | also measured
39 | – | Cc1cc(F)c(-n2cnc(C(F)(F)F)cc2=O)cc1SCC(F)(F)F [Example 1, 3-{2-Fluoro-4-methyl-5-[(2,2,2-trifluoroethyl)sulphanyl]phenyl}-6-(trifluoromethyl)pyrimidin-4(3H)-one] | 100 | chromatographic logP [1, 4]: 3.42; chromatographic logP [1, 5]: 3.4
40 | 3.88 | NC(=CC(=O)Nc1cc(SCC(F)(F)F)c(Br)cc1F)C(F)(F)F [IIa-5] | – | logP (neutral) [1]: 3.78
41 | – | Cc1cc(C)c([S+]([O-])CC(F)(F)F)cc1-n1cnc(C)c(C)c1=O (racemic) [Example 48] | 90 | –
42 | – | Cc1cc(C)c(SCC(F)(F)F)cc1NC(=O)C=C(O)C(F)(F)C(F)(F)F [XXXI-14] | – | logP (neutral) [1]: 1.63
43 | 2.72 | Cc1cc(F)c(NC(=O)C=C(O)C(C)(F)F)cc1SCC(F)(F)F [XXXI-11] | – | –
44 | 3.66 | NC(=CC(=O)Nc1ccc(Cl)c(SCC(F)(F)F)c1)C(F)(F)F [IIa-7] | – | logP (neutral) [1]: 3.65
45 | – | CCc1cc(=O)n(-c2ccc(C)c(SCC(F)(F)F)c2)cn1 [Example 43] | 90 | –
46 | 3.01 | Cc1cc(Cl)c(NC(=O)C=C(O)C(F)(F)F)cc1SCC(F)(F)F [XXXI-8] | – | logP (neutral) [1]: 1.44
47 | – | Cc1cc(F)c(-n2cnc(C(C)C)cc2=O)cc1SCC(F)(F)F [Example 31] | 100 | –
48 | 3.55 | Cc1cc(F)c(NC(=O)C=C(N)C(C)(F)F)cc1SCC(F)(F)F [IIa-11] | – | logP (neutral) [1]: 3.49
49 | – | Cc1cc(F)c(NC(=O)/C=C(\O)C(F)(F)F)cc1SCC(F)(F)F [XXXI-1, 4,4,4-Trifluoro-N-{2-fluoro-4-methyl-5-[(2,2,2-trifluoroethyl)sulphanyl]phenyl}-3-hydroxybut-2-enamide] | – | chromatographic logP [1, 6]: 2.77; chromatographic logP [1, 5]: 1.43
50 | – | Cc1cc(F)c(-n2cnc(C3CC3)cc2=O)cc1[S+]([O-])CC(F)(F)F (racemic) [Example 7] | 100 | –
51 | – | Cc1cc(C)c(-n2cnc(C(F)(F)C(F)(F)F)cc2=O)cc1SCC(F)(F)F [Example 36] | 100 | –
52 | – | Cc1ccc(-n2cnc(C(F)(F)F)cc2=O)cc1[S+]([O-])CC(F)(F)F (racemic) [Example 50] | 100 | efficacy (no fertile eggs laid) [3]: 100%
53 | – | Cc1cc(=O)n(-c2cc(SCC(F)(F)F)c(C)cc2C)cn1 [Example 20] | 100 | –
54 | – | O=c1cc(C(F)(F)F)ncn1-c1cc(SCC(F)(F)F)c(Br)cc1F [Example 15] | 100 | –
55 | 3.83 | NC(=CC(=O)Nc1cc(SCC(F)(F)F)c(Cl)cc1F)C(F)(F)F [IIa-4] | – | logP (neutral) [1]: 3.73
56 | – | Cc1cc(F)c(-n2cnc(C3CC3)cc2=O)cc1SCC(F)(F)F [Example 37] | 100 | –
